Reference: patent publication US10550143B2, “C,O-spiro aryl glycoside compounds, preparation therefor and use thereof” (SHANGHAI INSTITUTE OF MATERIA MEDICA, CHINESE ACADEMY OF …, priority 2015, dated 2020)

What was measured:
SD rats = assay: Acute administration of A28 at multiple doses, glucose tolerance of SD rats; format: in vivo, rat; conditions: SD rats OGTT; for Blood glucose level 0: before sugar
Experimental: (1) 80 SD rats were selected and starved overnight, took water freely, then randomly divided into 10 groups according to body weight and random blood glucose, 8 rats in each group. […] 1 h after oral gavage, 3 g/kg of glucose was orally administered to each group except blank control group, and the blood glucose level was monitored before the sugar administration, and at 15, 30, 60, 90 and 120 minutes after the sugar administration.
Average hypoglycemic rate %=(AUC0-120 min of solvent control group−AUC0-120 min of administration group)/(AUC0-120 min of solvent control group−AUC0-120 min of blank control group)*100%

C57BL/6J mice = assay: Acute administration of A28 at multiple doses, urinary glucose of C57BL/6J mice; format: in vivo, mouse; conditions: 24 h urine
Experimental: (1) 90 normal male C57BL/6J mice were selected and randomly divided into 9 groups according to body weight and blood glucose, 10 in each group. […] After oral gavage, the mice were placed in rats (mice) metabolic cages, […] and urine was collected after 24 h, and the urine volume was recorded, then preserved under −20° C. Rats take food and water freely during the experimental period.
(2) Index Determination: Glucose levels in urine are measured by the glucose assay kit.

db/db mice [1] = assay: Acute administration at multiple doses, random blood glucose in db/db mice; format: in vivo, mouse; conditions: for Blood glucose level 0 h: before administration
Experimental: (1) 127 db/db mice (half male and half female) entered the animal laboratory of the institute at 7 weeks of age and were grouped at 10 weeks of age. Random blood glucose and random body weight of all db/db mice were determined at 9:00 am, and then fasted for 6 hours (free drinking). Fasting blood glucose and fasting body weight were determined, and blood was collected (10 μl EDTA+20 μl tail blood, centrifugated to collect supernatant) to determine the insulin content. […] The db/db mice were once orally administered at a dose of 10 mL/kg. Blood glucose levels were measured before administration, and at 1 h, 2 h, 3 h, 4 h, 6 h after administration, and the administration times and body weights were recorded. Mice took food and water freely during the experiment.
Average hypoglycemic rate %=(model control group−administration group)/(model control group−blank control group)*100%

db/db mice [2] = assay: Chronic administration, fasting blood glucose in db/db mice; format: in vivo, mouse; conditions: for fasting blood glucose Pre: before administration; for Hypoglycemic rate % week 1 / Hypoglycemic rate % week 2 / Hypoglycemic rate % week 3 / Hypoglycemic rate % week 4: fasting blood glucose
Experimental: (§1) Oral gavage administrated, daily dose volume was 10 mL/kg, administered once daily. Administration time was 9: 00-10:00 daily, and the administration period was 5 weeks.
The random blood glucose of mice in the normal control group, model control group, test substance administration group and positive control group were determined on the 7th, 14th, 21st, 28th day (9: 00-10:00) every week after the first administration, and food was removed and after 6 hours of starvation, the fasting blood glucose in each group was measured. Free drinking during the hunger process. The rate of decrease of blood glucose was calculated according to the following formula: Average hypoglycemic rate %=(Blood glucose of model control group−Blood glucose of administration group)/Model control group×100%

db/db mice [3] = assay: Chronic administration, glucose-stimulated insulin release in db/db mice; format: in vivo, mouse; conditions: glucose-stimulated insulin release, chronic administration
Experimental: as §1
The fourth week after administration, the mice were starved for 6 hours after morning administration and were orally administrated with glucose (1.5 g/kg), and blood was collected from the tail (10 μL EDTA+20 μL tail blood). Centrifuged and the supernatant was taken, stored at −20° C. for insulin test.

For `CCOc1ccc(Cc2cc([C@@H]3O[C@H](CO)[C@@H](O)[C@H](O)[C@H]3O)ccc2Cl)cc1` [Dapa], the AUC0-2 h (SD rats; oral 1 mg/kg) was 16.6 ± 1.2 mmol·h/L, the “Average hypoglycemic rate % (0-2 h)” value (SD rats; oral 1 mg/kg) was 35.1% and the “Blood glucose level 15 min” value (SD rats; oral 1 mg/kg) was 6.6 ± 0.7 mmol/L. The “Blood glucose level 30 min” value (SD rats; oral 1 mg/kg) was 7.8 ± 0.9 mmol/L, the “Blood glucose level 60 min” value (SD rats; oral 1 mg/kg) was 9.4 ± 1.1 mmol/L and the “Blood glucose level 90 min” value (SD rats; oral 1 mg/kg) was 9.5 ± 1.0 mmol/L. The “Blood glucose level 120 min” value (SD rats; oral 1 mg/kg) was 7.9 ± 1.3 mmol/L, the “Blood glucose level 0” value (SD rats; oral 1 mg/kg) was 4.9 ± 0.4 mmol/L and the AUC0-2 h (SD rats; oral 3 mg/kg) was 14.9 ± 1.0 mmol·h/L. The “Average hypoglycemic rate % (0-2 h)” value (SD rats; oral 3 mg/kg) was 51.5%, the “Blood glucose level 15 min” value (SD rats; oral 3 mg/kg) was 4.7 ± 0.2 mmol/L and the “Blood glucose level 30 min” value (SD rats; oral 3 mg/kg) was 6.9 ± 1.0 mmol/L. For the same compound, the “Blood glucose level 60 min” value (SD rats; oral 3 mg/kg) was 8.6 ± 1.0 mmol/L, the “Blood glucose level 90 min” value (SD rats; oral 3 mg/kg) was 8.6 ± 1.3 mmol/L and the “Blood glucose level 120 min” value (SD rats; oral 3 mg/kg) was 8.3 ± 1.2 mmol/L. The “Blood glucose level 0” value (SD rats; oral 3 mg/kg) was 4.0 ± 0.6 mmol/L, the Total sugar excretion (C57BL/6J mice; oral 1 mg/kg) was 258.20 ± 81.71 mg/100 g and the Urine concentration (C57BL/6J mice; oral 1 mg/kg) was 142.82 ± 45.20 mmol/L. It also gave a Urine volume (C57BL/6J mice; oral 1 mg/kg) of 2.3 ± 0.7 mL, a Total sugar excretion (C57BL/6J mice; oral 3 mg/kg) of 315.49 ± 99.84 mg/100 g and a Urine concentration (C57BL/6J mice; oral 3 mg/kg) of 177.86 ± 56.29 mmol/L. The Urine volume (C57BL/6J mice; oral 3 mg/kg) was 2.3 ± 0.7 mL, the AUC0-6 h (db/db mice [1]; single oral 1 mg/kg) was 67.8 ± 2.5 mmol·h/L and the “Blood glucose level 1 h” value (db/db mice [1]; single oral 1 mg/kg) was 13.0 ± 0.7 mmol/L. For the same compound, the “Blood glucose level 2 h” value (db/db mice [1]; single oral 1 mg/kg) was 11.4 ± 0.6 mmol/L, the “Blood glucose level 3 h” value (db/db mice [1]; single oral 1 mg/kg) was 10.2 ± 0.6 mmol/L and the “Blood glucose level 4 h” value (db/db mice [1]; single oral 1 mg/kg) was 9.8 ± 0.7 mmol/L. The “Blood glucose level 6 h” value (db/db mice [1]; single oral 1 mg/kg) was 8.8 ± 0.6 mmol/L, the “Blood glucose level 0 h” value (db/db mice [1]; single oral 1 mg/kg) was 19.3 ± 1.3 mmol/L and the AUC0-6 h (db/db mice [1]; single oral 3 mg/kg) was 59.7 ± 1.7 mmol·h/L. The “Blood glucose level 1 h” value (db/db mice [1]; single oral 3 mg/kg) was 11.8 ± 0.5 mmol/L, the “Blood glucose level 2 h” value (db/db mice [1]; single oral 3 mg/kg) was 8.5 ± 0.4 mmol/L and the “Blood glucose level 3 h” value (db/db mice [1]; single oral 3 mg/kg) was 8.6 ± 0.5 mmol/L. The “Blood glucose level 4 h” value (db/db mice [1]; single oral 3 mg/kg) was 8.5 ± 0.3 mmol/L, the “Blood glucose level 6 h” value (db/db mice [1]; single oral 3 mg/kg) was 9.4 ± 0.7 mmol/L and the “Blood glucose level 0 h” value (db/db mice [1]; single oral 3 mg/kg) was 17.5 ± 1.3 mmol/L. For the same compound, the “fasting blood glucose week 1” value (db/db mice [2]; 1 mg/kg once daily oral) was 9.4 ± 0.6 mmol/L, the “fasting blood glucose week 2” value (db/db mice [2]; 1 mg/kg once daily oral) was 9.0 ± 0.6 mmol/L and the “fasting blood glucose week 3” value (db/db mice [2]; 1 mg/kg once daily oral) was 10.0 ± 1.0 mmol/L. The “fasting blood glucose week 4” value (db/db mice [2]; 1 mg/kg once daily oral) was 9.7 ± 0.7 mmol/L, the “fasting blood glucose Pre” value (db/db mice [2]; 1 mg/kg once daily oral) was 14.0 ± 1.0 mmol/L and the “fasting blood glucose week 1” value (db/db mice [2]; 3 mg/kg once daily oral) was 8.1 ± 0.6 mmol/L. For the same compound, the “fasting blood glucose week 2” value (db/db mice [2]; 3 mg/kg once daily oral) was 7.7 ± 0.6 mmol/L, the “fasting blood glucose week 3” value (db/db mice [2]; 3 mg/kg once daily oral) was 8.6 ± 0.4 mmol/L and the “fasting blood glucose week 4” value (db/db mice [2]; 3 mg/kg once daily oral) was 7.8 ± 0.4 mmol/L. The “fasting blood glucose Pre” value (db/db mice [2]; 3 mg/kg once daily oral) was 13.8 ± 1.2 mmol/L, the “Hypoglycemic rate % week 1” value (db/db mice [2]; 1 mg/kg once daily oral) was 30.3% and the “Hypoglycemic rate % week 2” value (db/db mice [2]; 1 mg/kg once daily oral) was 59.0%. For the same compound, the “Hypoglycemic rate % week 3” value (db/db mice [2]; 1 mg/kg once daily oral) was 43.9%, the “Hypoglycemic rate % week 4” value (db/db mice [2]; 1 mg/kg once daily oral) was 39.5% and the “Hypoglycemic rate % week 1” value (db/db mice [2]; 3 mg/kg once daily oral) was 39.8%. For the same compound, the “Hypoglycemic rate % week 2” value (db/db mice [2]; 3 mg/kg once daily oral) was 65.1%, the “Hypoglycemic rate % week 3” value (db/db mice [2]; 3 mg/kg once daily oral) was 51.6% and the “Hypoglycemic rate % week 4” value (db/db mice [2]; 3 mg/kg once daily oral) was 51.0%. The “Insulin AUC” value (db/db mice [3]; dose 1 mg/kg) was 27.89 ± 3.63, the “Insulin (ng/ml) 0 min” value (db/db mice [3]; dose 1 mg/kg) was 12.92 ± 1.17 ng/mL and the “Insulin (ng/ml) 15 min” value (db/db mice [3]; dose 1 mg/kg) was 35.99 ± 5.34 ng/mL. The “Insulin (ng/ml) 30 min” value (db/db mice [3]; dose 1 mg/kg) was 29.85 ± 4.97 ng/mL, the “Insulin (ng/ml) 60 min” value (db/db mice [3]; dose 1 mg/kg) was 24.33 ± 2.90 ng/mL and the “Insulin (ng/ml) pre” value (db/db mice [3]; dose 1 mg/kg) was 8.05 ± 1.10 ng/mL. The “Insulin AUC” value (db/db mice [3]; dose 3 mg/kg) was 22.69 ± 2.89, the “Insulin (ng/ml) 0 min” value (db/db mice [3]; dose 3 mg/kg) was 8.41 ± 1.07 ng/mL and the “Insulin (ng/ml) 15 min” value (db/db mice [3]; dose 3 mg/kg) was 21.29 ± 3.11 ng/mL. The “Insulin (ng/ml) 30 min” value (db/db mice [3]; dose 3 mg/kg) was 22.60 ± 3.22 ng/mL, the “Insulin (ng/ml) 60 min” value (db/db mice [3]; dose 3 mg/kg) was 31.36 ± 5.44 ng/mL and the “Insulin (ng/ml) pre” value (db/db mice [3]; dose 3 mg/kg) was 8.15 ± 0.91 ng/mL.
